Measurements taken from ChEMBL document CHEMBL1155844, “Pyrazole inhibitors of coactivator associated arginine methyltransferase 1 (CARM1)” (Bioorg Med Chem Lett, 2008).
pIC50: −log10 of the molar value.

Molecular target: T1, Histone-arginine methyltransferase CARM1 (Homo sapiens, UniProt Q86X55)
T1 sequence (Q86X55 whole entry): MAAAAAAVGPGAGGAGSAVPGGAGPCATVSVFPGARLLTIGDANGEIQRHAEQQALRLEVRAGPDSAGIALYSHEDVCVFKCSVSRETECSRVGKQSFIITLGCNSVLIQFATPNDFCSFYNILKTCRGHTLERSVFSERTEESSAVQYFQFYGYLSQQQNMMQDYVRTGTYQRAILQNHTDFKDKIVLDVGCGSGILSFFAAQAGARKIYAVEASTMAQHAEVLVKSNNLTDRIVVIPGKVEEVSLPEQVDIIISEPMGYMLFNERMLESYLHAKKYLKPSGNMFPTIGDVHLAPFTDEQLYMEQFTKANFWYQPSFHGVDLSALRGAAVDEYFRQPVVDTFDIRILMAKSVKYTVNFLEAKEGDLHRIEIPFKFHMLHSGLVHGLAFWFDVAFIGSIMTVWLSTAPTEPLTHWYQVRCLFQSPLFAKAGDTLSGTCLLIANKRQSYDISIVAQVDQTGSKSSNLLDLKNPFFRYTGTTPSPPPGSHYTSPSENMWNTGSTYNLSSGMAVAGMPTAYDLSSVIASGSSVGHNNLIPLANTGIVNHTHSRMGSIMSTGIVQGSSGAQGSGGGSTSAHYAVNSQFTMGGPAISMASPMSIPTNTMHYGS
Test: Inhibition of human GST-tagged CARM1 by methylation assay

pIC50	SMILES
< 4.52	CNCC(=O)NCc1cccc(-n2nc(C(F)(F)F)cc2C(=O)Nc2ccc(-c3ccccc3S(C)(=O)=O)cc2F)c1
< 4.52	CC(C)(N)C(=O)NCc1cccc(-n2nc(C(F)(F)F)cc2C(=O)Nc2ccc(-c3ccccc3S(C)(=O)=O)cc2F)c1
7.10	C[C@H](N)C(=O)NCc1cccc(-n2nc(C(F)(F)F)cc2C(=O)NCc2ccccc2)c1
5.88	C[C@H](N)C(=O)NCc1cccc(-n2nc(C(F)(F)F)cc2C(=O)Nc2ccccc2)c1
5.47	C[C@H](N)C(=O)NCc1cccc(-n2nc(C(F)(F)F)cc2C(=O)N(C)Cc2ccccc2)c1
4.53	CN(C)C(=O)c1cc(C(F)(F)F)nn1-c1cccc(CNC(=O)CN)c1
6.64	CS(=O)(=O)c1cccc(NC(=O)c2cc(C(F)(F)F)nn2-c2cccc(CNC(=O)CN)c2)c1
6.74	C[C@H](N)C(=O)NCc1cccc(-n2nc(C(F)(F)F)cc2C(=O)N[C@H](C)c2ccccc2)c1
5.96	C[C@H](N)C(=O)NCc1cccc(-n2nc(C(F)(F)F)cc2C(=O)NCCc2ccccc2)c1
5.37	C[C@H](N)C(=O)NCc1cccc(-n2nc(C(F)(F)F)cc2C(=O)NC2CCCCC2)c1
4.97	CNC(=O)c1cc(C(F)(F)F)nn1-c1cccc(CNC(=O)CN)c1
5.15	C[C@H](N)C(=O)NCc1cccc(-n2nc(C(F)(F)F)cc2C(=O)N[C@@H](C)c2ccccc2)c1
6.22	C[C@H](N)C(=O)NCc1cccc(-n2nc(C(F)(F)F)cc2NC(=O)OCc2ccccc2)c1
< 4.30	C[C@H](N)C(=O)NCc1ccc(-n2nc(C(F)(F)F)cc2C(=O)NCc2ccccc2)cc1
5.85	NCC(=O)NCc1cccc(-n2nc(C(F)(F)F)cc2C(=O)Nc2ccc(-c3ccccc3)cc2)c1
4.77	CS(=O)(=O)c1ccccc1-c1ccc(NC(=O)c2cc(C(F)(F)F)nn2-c2cccc(CNC(=O)CCN)c2)c(F)c1
6.80	C[C@H](N)C(=O)NCc1cccc(-n2nc(C(F)(F)F)cc2C(=O)Nc2ccc(-c3ccccc3S(C)(=O)=O)cc2F)c1
4.70	C[C@@H](N)C(=O)NCc1cccc(-n2nc(C(F)(F)F)cc2C(=O)Nc2ccc(-c3ccccc3S(C)(=O)=O)cc2F)c1
< 4.52	CS(=O)(=O)c1ccccc1-c1ccc(NC(=O)c2cc(C(F)(F)F)nn2-c2cccc(CNC(=O)C(N)C(F)(F)F)c2)c(F)c1 (centres undefined)
5.11	NCC(=O)NCc1cccc(-n2nc(C(F)(F)F)cc2C(=O)Nc2ccccc2)c1
< 4.30	C[C@H](N)C(=O)NCc1ccccc1-n1nc(C(F)(F)F)cc1C(=O)NCc1ccccc1
5.74	CS(=O)(=O)c1ccccc1-c1ccc(NC(=O)c2cc(C(F)(F)F)nn2-c2cccc(CNC(=O)CN)c2)cc1

Molecular target: Protein arginine N-methyltransferase 3 (Homo sapiens, UniProt O60678)
Test: Inhibition of GST-tagged PRMT3 by methylation assay

Chain of Protein arginine N-methyltransferase 3 (O60678 whole entry): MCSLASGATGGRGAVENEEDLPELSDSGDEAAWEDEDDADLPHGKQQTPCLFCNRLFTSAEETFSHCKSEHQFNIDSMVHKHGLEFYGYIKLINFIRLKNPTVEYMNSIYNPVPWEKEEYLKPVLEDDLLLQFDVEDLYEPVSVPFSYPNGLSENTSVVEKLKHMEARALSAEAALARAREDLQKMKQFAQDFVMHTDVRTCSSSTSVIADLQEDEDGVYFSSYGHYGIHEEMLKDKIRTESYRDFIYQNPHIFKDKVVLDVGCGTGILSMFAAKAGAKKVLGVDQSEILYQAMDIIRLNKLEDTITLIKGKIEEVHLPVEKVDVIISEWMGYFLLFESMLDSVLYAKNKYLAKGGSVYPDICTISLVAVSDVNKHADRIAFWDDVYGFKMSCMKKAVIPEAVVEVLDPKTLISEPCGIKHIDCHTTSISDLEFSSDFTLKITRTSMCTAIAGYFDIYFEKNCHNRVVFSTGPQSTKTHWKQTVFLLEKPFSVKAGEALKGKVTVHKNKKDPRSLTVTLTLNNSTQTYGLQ

pIC50	SMILES
< 4.60	C[C@H](N)C(=O)NCc1cccc(-n2nc(C(F)(F)F)cc2C(=O)NCc2ccccc2)c1

Molecular target: Protein arginine N-methyltransferase 1 (Homo sapiens, UniProt Q99873)
Test: Inhibition of GST-tagged PRMT1 by methylation assay

Chain of Protein arginine N-methyltransferase 1 (Q99873 whole entry): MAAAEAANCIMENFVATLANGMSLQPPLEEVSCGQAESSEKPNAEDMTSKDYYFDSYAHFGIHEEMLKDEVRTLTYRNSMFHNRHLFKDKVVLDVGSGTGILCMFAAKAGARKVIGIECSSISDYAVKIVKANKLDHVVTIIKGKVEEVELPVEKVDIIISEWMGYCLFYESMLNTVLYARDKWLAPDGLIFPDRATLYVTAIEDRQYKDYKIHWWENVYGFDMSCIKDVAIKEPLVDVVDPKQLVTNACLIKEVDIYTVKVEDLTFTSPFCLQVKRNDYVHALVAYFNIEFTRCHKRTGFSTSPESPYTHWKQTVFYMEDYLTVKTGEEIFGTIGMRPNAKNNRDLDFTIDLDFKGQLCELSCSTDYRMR

pIC50	SMILES
< 4.60	C[C@H](N)C(=O)NCc1cccc(-n2nc(C(F)(F)F)cc2C(=O)NCc2ccccc2)c1
